“And” between values parts separate entries of the source, which are not always exact repeats. Equal values may be shown once. “Also recorded” adds a separate entry of the source.
Tests used:
mouse cornea = test: VEGF induced corneal angiogenesis, mouse corneal model; format: in vivo; details: 2.5 μg/ml GA, 160 ng/ml VEGF
HUVEC cells [1] = test: Wound migration assay, VEGF dependent; format: cell-based, human; details: 10 nM GA, 4 ng/ml VEGF, 24 hours
Experimental: HUVEC cells were allowed to grow to full confluence on six-well plates precoated with 0.1% gelatin. Monolayer cells were wounded by scratching with 1 ml pipette tip and washed three times with 1×PBS. Fresh endothelial cell growth medium (hereinafter, ECGM) was added with or without 4 ng/ml VEGF, which was received from the NIH experimental branch, and supplemented with different concentrations of GA. Images were taken after 24 hours of incubation at 37° C. in a 5% CO2 incubator (hereinafter, 5% CO2) with a Nikon digital camera. For PC3 cell migration, PC3 cells were allowed to grow to full confluence on six-well plates and wounded by scratching with a 1 ml pipette tip and washed three times of 1×PBS. Fresh 1640 medium was added with 4 ng/ml VEGF and different concentrations of GA. After a 24-hour incubation period, images were take with a Leica DM IRB inverted microscope. The migrated cells were quantified by manual counting of high power fields (HPF, 200×) and percent inhibition was expressed using untreated wells as 100% (t-test, p<0.005).

PC3 cells = test: Flow cytometry / FACS apoptosis (Sub G1, propidium iodide); format: cell-based, human; details: 24 hours
Experimental: (§1) About 2×10^6 HUVEC and PC3 cells were treated with different concentrations of GA at 37° C. in a 5% CO2 incubator for 24 hours. The cells were collected and flow cytometry was performed using a FACS Vantage SE DiVa flow cytometer (Becton Dickinson) with propidium iodide staining. The cell population percentages at Sub G1 were defined as apoptotic cells.

HUVEC cells [2] = test: as above; format: cell-based, human; details: 24 hours
Experimental: as §1

HUVEC cells [3] = test: Transwell migration (invasion) assay; format: cell-based, human; details: 40 nM GA, 4 hours
Experimental: The transwell (Corning Incorporated, NY, USA) were coated with 0.1% gelatin (Sigma) for 30 minutes at 37° C. After washed the transwells three times with 1×PBS, the bottom chambers (600 μl) were filled with ECGM medium with 20% FBS supplemented with 4 ng/ml VEGF and the top chambers were seeded with 100 μl ECGM medium and HUVEC cells (4×10^4 cell/well). The top and bottom chambers contained the same series of concentrations of gambogic acid (GA). HUVEC cells were allowed to migrate for 4 hours at 37° C., 5% CO2. After the incubation, cells on the top surface of the membrane (nonmigrated) were scraped with a cotton swab. Cells on the bottom side of the membrane (migrated cells) were fixed with 4% paraformaldehyde for 20 minutes and washed three times with 1×PBS. The cells were stained by hematoxylin and eosin (hereinafter, H&E) staining and then destained with 1×PBS (pH 7.4). The membranes were left to air dry at room temperature for 30 minutes. Images were taken using an OLYMPUS inverted microscope and migrated cells were quantified by manual counting using high power fields (HPF, 200×). The invaded cells were calculated and percent inhibition was expressed using untreated wells as 100% (t-test, p<0.01).

[4] = 4 mg/kg GA, 1 treatment every two days; cited from earlier work
mice aortic rings = test: Aortic ring assay (micro-vessel growth); format: cell-based; details: 10 nM GA, 4 days incubation
Experimental: Forty-eight-well plates were covered with 100 μl of Matrigel at 4° C. and incubated at 37° C., 5% CO2 for 30 minutes. Aortas isolated from mice were cleaned of periadventitial fat and connective tissues, and cut into about 1-1.5 mm-long rings. After being rinsed five times with endothelial cell-based medium, the aortas were placed on the Matrigel covered wells and covered with another 100 μl of Matrigel. Artery rings were cultured in 1.5 ml of ECGM medium without serum for 24 hours. The medium was then replaced with 1.5 ml of ECGM medium supplemented with or without GA. The medium was changed every two days with the exact composition as described above. After 4 days incubation, the micro-vessel growth was quantified in the mouse aortic ring assay by taking photographs with an Olympus IX 70 inverted microscope using a 4× objective lens. After images were acquired, the outgrowth area was delineated and measured with Pro Plus software (Media Cybernetics).

CC(C)=CCC[C@]1(C)C=Cc2c(O)c3c(c(CC=C(C)C)c2O1)O[C@]12C(=C[C@@H]4C[C@H]1C(C)(C)O[C@@]2(C/C=C(/C)C(=O)O)C4=O)C3=O [GA, gambogic acid]
VEGF induced corneal angiogenesis (mouse cornea): significantly inhibits corneal angiogenesis; also recorded: dramatically inhibits
VEGF dependent migration of HUVEC cells (HUVEC cells [1]): inhibits VEGF dependent migration; also recorded: strongly inhibited VEGF dependent migration
Apoptotic population (PC3 cells; GA 20 nM): 1.6 ± 0.3 % of total
Apoptotic population (PC3 cells; GA 40 nM): 2.9 ± 0.4 % of total
Apoptotic population (PC3 cells; GA 80 nM): 4 % of total and 4.3 ± 0.5 % of total
Apoptotic population (PC3 cells; GA 100 nM): 13.8 ± 3.6 % of total
Apoptotic population (HUVEC cells [2]; GA 20 nM): 11.6 ± 1.1 % of total
Apoptotic population (HUVEC cells [2]; GA 40 nM): 14.4 ± 2.3 % of total
Apoptotic population (HUVEC cells [2]; GA 80 nM): 40 % of total and 40 ± 3.6 % of total
Apoptotic population (HUVEC cells [2]; GA 100 nM): 57.6 ± 4.7 % of total
Invasion of HUVEC cells (transwell) (HUVEC cells [3]): inhibit almost all invasion activities
Toxicity of dosage [4]: non-toxic dosage
New vessel growth from aortic rings (mice aortic rings): inhibited almost all new vessel growth
